Tests used:
[1] = Photochromic properties of photochromic cured product made by kneading method; assay type: physicochemical; details: for Maximum absorption wavelength: 1 mm, after color development, second absorption wavelength (lower line of pair); for Color developing density at 23°C: absorbance difference after 240 seconds irradiation at 23°C; for Color developing density at 35°C: absorbance difference after 240 seconds irradiation at 35°C
Description: First, the photochromic compound obtained in Example 1, additives, and polymerizable compounds were mixed to obtain a curable composition. As the polymerizable compounds, a blend of the following polymerizable monomers in combination was used. • 1,3-Bis(isocyanatomethyl)cyclohexane: 36.7 parts by mass Pentaerythritol tetrakis(3-mercaptopropionate): 39.4 parts by mass • Polyoxyethylene polyoxypropylene lauryl ether (WONDERSURF 140 from Aoki Oil Industrial Co., Ltd.): 17.4 parts by mass 1-Decanethiol: 2.8 parts by mass • RX-1 prepared according to the method described in Patent Document 12: 3.8 parts by mass Note that in the curable composition, the photochromic compound was added to be 0.106 mmol taking the total amount of the polymerizable monomers as 100 g.
The following additives were used. Dimethyltin dichloride: 0.05 parts by mass • Irganox 245 from BASF Japan Ltd.: 0.1 parts by mass • 2-Ethylhexyl 4-methoxycinnamate: 0.6 parts by mass
The prepared curable composition was sufficiently degassed, and then injected into a glass mold provided with a gap of 1 mm, and the curable composition was polymerized via casting polymerization. […] After the polymerization, the cured product was removed from the glass mold, to obtain photochromic cured product having a thickness of 1 mm. The resulting photochromic cured product was evaluated in the same manner as in Example 23.
(Examples 51 to 60, and Comparative Examples 11 to 14) Photochromic cured products were formed using the photochromic compound shown in Table 6 in the same manner as in Example 50.

[2] = Photochromic properties of photochromic laminate (plastic lens) made by coating method; assay type: physicochemical; details: for Color developing density at 23°C: absorbance difference after 240 seconds irradiation at 23°C; for Color developing density at 35°C: absorbance difference after 240 seconds irradiation at 35°C; for Maximum absorption wavelength: after color development, second absorption wavelength (lower line of pair)
Description: First, the photochromic compound obtained in Example 1 above, a photoinitiator, and polymerizable compounds were mixed to obtain a curable composition.
As the polymerizable compounds, a blend of the following radically-polymerizable monomers in combination was used.
• Polyethylene glycol dimethacrylate (average molecular weight: 736): 42 parts by mass • Polyethylene glycol dimethacrylate (average molecular weight: 536): 12 parts by mass • Trimethylolpropane trimethacrylate: 38 parts by mass • γ-Methacryloyloxypropyltrimethoxysilane: 2 parts by mass • Glycidyl methacrylate: 1 part by mass.
Note that in the curable composition, the photochromic compound obtained in Example 1 above was added to be 0.25 mmol taking the total amount of the radically-polymerizable monomers as 100 g. The following were used as additives.
(stabilizer, Irganox 245): 1 part by mass Bis(1,2,2,6,6-pentamethyl-4-piperidyl) sebacate: 3 parts by mass Leveling agent from DuPont Toray Specialty Materials K.K. (L7001): 0.1 parts by mass.
Note that the above-mentioned additives are described with blending ratios taking a total of the radically-polymerizable monomers as 100 parts by mass.
Using this curable composition, a photochromic laminate was obtained by a lamination process described below with the polymerization described below being carried out.
First, a thiourethane plastic lens with a center thickness of 2 mm and a refractive index of 1.60 was prepared as an optical substrate. Note that the thiourethane plastic lens had been alkaline-etched beforehand in a 10% aqueous sodium hydroxide solution at 50°C for 5 minutes, and then thoroughly washed with distilled water.
A spin coater (1H-DX2, manufactured by MIKASA CO., LTD) was used to coat a surface of the above-mentioned plastic lens with a moisture-curable primer (product name: TR-SC-P, manufactured by Tokuyama Corporation) at a rotation speed of 70 rpm for 15 seconds, followed by at 1000 rpm for 10 seconds. Then, about 2 g of the photochromic curable composition obtained as above was spin-coated at a rotation speed of 60 rpm for 40 seconds, followed by at 600 rpm for 10 to 20 seconds so as to achieve a photochromic coating layer with a film thickness of 40 µm.
The lens having the surface coated with the photochromic curable composition (photochromic coating layer) was irradiated with light for 90 seconds in a nitrogen gas atmosphere using a metal halide lamp with an output of 200 mW/cm^2 to cure the coating film. The coating was then further heated at 110°C for 1 hour to produce a photochromic laminate with a photochromic layer.
Photochromic laminates were produced using the photochromic compounds obtained in Examples 2 to 19 in the same manner as in Example 20.
Photochromic laminates were obtained in the same manner as in Example 20 using photochromic compounds represented by the following formulas (A) to (F). [drawing 143] [drawing 144] [drawing 145] [drawing 146] [drawing 147] [drawing 148] [drawing 149] [drawing 150]
The resulting photochromic laminates were evaluated by the methods described below.
Table 3 summarizes the results of Examples 20, 32, and 34, and Comparative Examples 1 to 6, and Table 4 summarizes the results of Examples 21 to 31, 33, and 35 to 38. The relationship between the fading half-life at 23°C and the color development ratio at the higher temperature of the photochromic laminates according to Examples and Comparative Examples are shown in a graph in FIG. 1.
Photochromic laminates were formed using the photochromic compound obtained in Examples 61 to 71 in the same manner as in Example 20.

[3] = Photochromic properties of photochromic layer (binder sheet) made by binder method; details: for Color developing density at 23°C: absorbance difference after 240 seconds irradiation at 23°C; for Color developing density at 35°C: absorbance difference after 240 seconds irradiation at 35°C; for Maximum absorption wavelength: after color development, second absorption wavelength (lower line of pair)
Description: This is the maximum absorption wavelength after color development determined by a spectrophotometer manufactured by Otsuka Electronics Co., Ltd. (instantaneous multichannel photo detector MCPD3000) and was used as an index of a color tone upon color development.
This is a difference between an absorbance {ε(240)} after irradiation with light at the above-mentioned maximum absorption wavelength at 23°C for 240 seconds and an absorbance ε(0) when not irradiated with light, and was used as an index of a color developing density. The higher this value is, the better photochromic property is.
This is a difference between an absorbance {ε(240)} after irradiation with light at first and second absorption wavelengths at 35°C for 240 seconds and an absorbance ε(0) when not irradiated with light, and was used as an index of a color developing density. The higher this value is, the better photochromic property is.
Color developing density at 35°C (A35) /color developing density at 23°C (A23) × 100(%). The higher this value is, the smaller the difference in color developing density between the higher temperature and the lower temperature is, and the smaller the temperature dependence is.
This is the period of time required for the absorbance at a maximum absorption wavelength of a sample to decrease to 1/2 of {ε(240)-ε(0)}, when light irradiation is stopped after the sample had been irradiated with light at 23°C for 240 seconds, and was used as an index of a color fading rate. The shorter this period of time is, the higher the color fading rate is.
A binder sheet was made according to the following method. […] As the first and second optical sheets, polycarbonate sheets with a thickness of 400 µm were used.
Note that the photochromic compound was added to be 0.25 mmol relative to 100 parts by mass of the terminally non-reactive urethaneurea resin.

SMILES | Maximum absorption wavelength [1] | Color developing density at 23°C ([1]; first absorption wavelength) | Color developing density at 23°C ([1]; second absorption wavelength) | Color developing density at 35°C ([1]; first absorption wavelength) | Color developing density at 35°C ([1]; second absorption wavelength) | Color developing density at 23°C ([2]; first absorption wavelength) | Color developing density at 23°C ([2]; second absorption wavelength) | Color developing density at 35°C ([2]; first absorption wavelength) | Color developing density at 35°C ([2]; second absorption wavelength) | Maximum absorption wavelength [2] | Color developing density at 23°C ([3]; first absorption wavelength) | Color developing density at 23°C ([3]; second absorption wavelength) | Color developing density at 35°C ([3]; first absorption wavelength) | Color developing density at 35°C ([3]; second absorption wavelength) | Maximum absorption wavelength [3]
COc1ccc(C2(c3ccc(OC)cc3)C=Cc3c4c(c5ccc(OC)cc5c3O2)-c2ccc(N(C)c3ccccc3)cc2C4(C)C)cc1 [Formula (1-7)] | 621 nm | 0.89 - | 1.09 - | 0.67 - | 0.84 - | 0.86 - | 1.06 - | 0.64 - | 0.81 - | 616 nm | 0.88 - | 1.08 - | 0.63 - | 0.80 - | 613 nm
COCCCCC1(CCCCOC)c2cc(N(C)c3ccccc3)ccc2-c2c1c1c(c3cc(OC)c(OC)cc23)OC(c2ccc(OC)cc2)(c2ccc(OC)cc2)C=C1 [Formula (2-7)] | 615 nm | 1.50 - | 0.86 - | 1.12 - | 0.66 - | 1.43 - | 0.83 - | 1.06 - | 0.62 - | 608 nm | 1.47 - | 0.85 - | 1.06 - | 0.61 - | 609 nm
CCCCOc1ccc(C2(c3ccc(OC)cc3)C=Cc3c4c(c5ccc(C)cc5c3O2)-c2ccc(N3CCOc5ccccc53)cc2C4(CCCC(F)(F)F)CCCC(F)(F)F)cc1 (stereo not shown) [Formula (3-3)] | 588 nm | 0.94 - | 1.36 - | 0.73 - | 1.06 - | 0.91 - | 1.33 - | 0.69 - | 1.02 - | 581 nm | 0.94 - | 1.34 - | 0.68 - | 1.00 - | 580 nm
COc1ccc(C2(c3ccc(N4CCOCC4)cc3)C=Cc3c4c(c5ccc(OC)cc5c3O2)-c2ccc(N(C)c3ccccc3)cc2C42CCCCCCC2)cc1 (stereo not shown) [Formula (4-3)] | 631 nm | 0.69 - | 1.17 - | 0.49 - | 0.84 - | 0.68 - | 1.14 - | 0.48 - | 0.81 - | 626 nm | 0.68 - | 1.16 - | 0.47 - | 0.80 - | 627 nm
COCCCC1(CCCOC)c2cc(N(c3ccccc3)c3ccccc3)ccc2-c2c1c1c(c3cc(OC)c(N4CCOCC4)cc23)OC(c2ccc(C)cc2)(c2ccc(N(C)c3ccccc3)cc2)C=C1 (stereo not shown) [Formula (69-2)] | – | – | – | – | – | 1.76 - | 1.28 - | 1.32 - | 0.96 - | 640 nm | – | – | – | – | –
CCCCCCC1(CCCCCC)c2cc(N(c3ccccc3)c3ccccc3)ccc2-c2c1c1c(c3cc(OC)c(-c4ccccc4N4CCOCC4)cc23)OC(c2ccc(OC)cc2)(c2ccc(OC)c(F)c2)C=C1 (stereo not shown) [Formula (70-4)] | – | – | – | – | – | 1.44 - | 1.24 - | 1.16 - | 1.01 - | 621 nm | – | – | – | – | –
CCCC1(CCC)c2cc(N(C)c3ccccc3)ccc2-c2c1c1c(c3cc(OC)c(-c4ccc(N5CC(C)OC(C)C5)cc4)cc23)OC(c2ccc(N3CCOCC3)cc2)(c2ccc(OC)c(OC)c2)C=C1 (stereo not shown) [Formula (71-5)] | – | – | – | – | – | 1.43 - | 1.36 - | 1.17 - | 1.10 - | 643 nm | – | – | – | – | –
COc1ccc(C2(c3ccc(OC)cc3)C=Cc3c4c(c5ccc(OC)cc5c3O2)-c2ccc(Oc3ccccc3)cc2C4(C)C)cc1 [Formula(E), reference compound] | – | – | – | – | – | 0.71 - | 0.96 - | 0.46 - | 0.63 - | 579 nm | – | – | – | – | –
COc1ccc(C2(c3ccc(OC)cc3)C=Cc3c4c(c5ccc(OC)cc5c3O2)-c2ccc(OC(F)(F)F)cc2C4(C)C)cc1 [Formula(F), reference compound] | – | – | – | – | – | 0.62 - | 0.75 - | 0.37 - | 0.45 - | 565 nm | – | – | – | – | –

From patent EP4755878A1, “PHOTOCHROMIC COMPOUND, PHENOL DERIVATIVE, CURABLE COMPOSITION, OPTICAL ARTICLE, LENS, AND EYEGLASS” (TOKUYAMA CORPORATION, priority 2023, dated 2025)
